In this assay the target is T1, human PAH with the R408W mutation (A375 R408W cells) (Homo sapiens, UniProt P00439, R408W).
T1 construct: expressed in transfected cells
T1 sequence (P00439 1-452 R408W): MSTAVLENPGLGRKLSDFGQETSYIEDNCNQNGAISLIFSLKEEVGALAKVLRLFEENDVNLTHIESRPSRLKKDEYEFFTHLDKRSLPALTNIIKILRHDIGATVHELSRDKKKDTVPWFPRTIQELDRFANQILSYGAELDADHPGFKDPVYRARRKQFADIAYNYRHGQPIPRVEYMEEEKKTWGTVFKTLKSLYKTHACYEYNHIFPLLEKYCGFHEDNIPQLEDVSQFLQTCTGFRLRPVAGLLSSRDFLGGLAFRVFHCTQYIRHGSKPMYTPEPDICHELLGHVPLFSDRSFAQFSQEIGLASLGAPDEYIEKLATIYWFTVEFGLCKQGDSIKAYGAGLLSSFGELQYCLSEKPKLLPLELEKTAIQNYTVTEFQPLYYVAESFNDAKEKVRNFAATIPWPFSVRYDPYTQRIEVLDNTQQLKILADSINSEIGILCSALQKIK
Nature of the assay: Cell Based Phenylalanine Flux Assay. The following applies: 24 hrs with compound, then 20 μM sepiapterin and 800 μM 13C9,15N-Phenylalanine for 4 hours, 13C-Tyrosine by LC-MS, average where tested multiple times. On the procedure:
Cells expressing R408W PAH were made by transducing A375 cells with lentivirus encoding human PAH with the R408W mutation in pLVX-Puro, then selecting with puromycin until stable cell lines were generated. A375 R408W cells were seeded into 96 well plates in DMEM+10% FBS at a density of 40,000 cells/well one hour prior to compound addition. Compounds were resuspended in DMSO, and 2-fold serial dilutions were performed to generate a 10-point dose curve. Compounds were added to plated cells in a total volume of 100 μl, and a final DMSO concentration of 0.5%. Each compound was tested in duplicate. Following compound addition, cells were placed in a 5% CO2, 37° C. tissue culture incubator for 24 hrs. After the incubation period, 20 μM sepiapterin and 800 μM 13C9,15N-Phenylalanine were added. After 4 hours, cell media was removed. An aliquot of 10 μl of cell media was combined with 200 μl of extraction buffer (80% acetonitrile/20% H2O) for each well. Determination of ^13C-Tyrosine concentration was assessed by liquid chromatography mass spectrometry.
Specific compounds disclosed herein were tested in the foregoing assay and they were determined to have an AC50 according to the following scores: (A) less than or equal to 0.500 μM, (B) greater than 0.500 and less than […], (C) greater than or equal to 1.000 and less than 5.000 μM, (D) greater than or equal to 5.000 μM, (E) no fit, and (NT) not tested, as shown below. Where a compound was tested multiple times, the average value of the tests is reported.

The mark [1] stands for this setting: A375 cells expressing R408W PAH.

Bounds are passed on as bounds.

With `Cc1nc(-c2cnn(C)c2)oc1C(=O)N1CCc2[nH]cnc2C1c1nc2cc(F)ccc2o1` (stereo not drawn), the AC50 under setting [1] was ≥ 5000 nM.
Same read-out and setting: the result for `CC(C)(O)c1nc(C(=O)N2CCc3[nH]cnc3C2c2nc3c(F)cccc3o2)no1` (stereo not drawn) reads ≥ 5000 nM.
For the compound `O=C(c1nnc(-c2ccccn2)o1)N1CCc2[nH]cnc2[C@H]1c1nc2ccc(F)cc2o1` [Example 303, (S)-(4-(6-fluorobenzo[d]oxazol-2-yl)-6,7-dihydro-1H-imidazo[4,5-c]pyridin-5(4H)-yl)(5-(pyridin-2-yl)-1,3,4-oxadiazol-2-yl)methanone], the AC50 (A375 R408W cells) is ≤ 500 nM.
As to `O=C(c1cnc(N2CCC(F)CC2)o1)N1CCc2[nH]cnc2C1c1nc2cc(F)ccc2o1` (stereo not drawn), the AC50 under setting [1] is 1000 to 5000 nM.
`CC(C)(CO)c1nc(C(F)F)c(C(=O)N2CCc3[nH]cnc3[C@H]2c2nc3cc(F)ccc3o2)o1` [Example 824, (S)-(4-(difluoromethyl)-2-(1-hydroxy-2-methylpropan-2-yl)oxazol-5-yl)(4-(5-fluorobenzo[d]oxazol-2-yl)-6,7-dihydro-1H-imidazo[4,5-c]pyridin-5(4H)-yl)methanone]: the AC50 (A375 R408W cells) is ≤ 500 nM.
Same read-out and setting: the result for `O=C(c1ocnc1C(F)(F)F)N1CCc2[nH]cnc2[C@@H]1c1nc2cc(F)ccc2o1` [Example 24] reads 1000 to 5000 nM.
On the same count and under the same terms, the result for `Cc1cccc2oc([C@@H]3c4nc[nH]c4CCN3C(=O)c3cnc(C(C)(C)O)o3)nc12` [Example 511, (S)-(2-(2-hydroxypropan-2-yl)oxazol-5-yl)(4-(4-methylbenzo[d]oxazol-2-yl)-6,7-dihydro-1H-imidazo[4,5-c]pyridin-5(4H)-yl)methanone] reads 500 to 1000 nM.
In the case of `CC(C)(C)OC(=O)N1CC(c2nnc(C(=O)N3CCc4[nH]cnc4C3c3nc4cc(F)ccc4o3)o2)C1` (stereo not drawn), the concentration at half-maximal activity (AC50) under setting [1] was in the range of 1000 to 5000 nM.
Same read-out and setting: with `Cc1nc(C2(O)CCC2)oc1C(=O)N1CCc2[nH]cnc2C1c1nc2cc(F)ccc2o1` (stereo not drawn) the figure was 1000 to 5000 nM.
Regarding `O=C(c1ocnc1C(F)F)N1CCc2[nH]cnc2[C@H]1c1nc2cc(C(F)(F)F)ccc2o1` [Example 329, (S)-(4-(difluoromethyl)oxazol-5-yl)(4-(5-(trifluoromethyl)benzo[d]oxazol-2-yl)-6,7-dihydro-1H-imidazo[4,5-c]pyridin-5(4H)-yl)methanone], the AC50 (A375 R408W cells) was ≤ 500 nM.
Consider `CC(F)(F)c1ncoc1C(=O)N1CCc2[nH]cnc2[C@H]1c1nc2cccc(F)c2o1` [Example 620, (S)-(4-(1,1-difluoroethyl)oxazol-5-yl)(4-(7-fluorobenzo[d]oxazol-2-yl)-6,7-dihydro-1H-imidazo[4,5-c]pyridin-5(4H)-yl)methanone], for which, for the setting “A375 R408W cells”, the half-maximal activity concentration (AC50) was ≤ 500 nM.
The same measure, in the same setting: with `COCc1ccc2c(C(=O)N3CCc4[nH]cnc4[C@@H]3c3nc4cc(C)ccc4o3)cnn2c1` [Example 878, (R)-(6-(methoxymethyl)pyrazolo[1,5-a]pyridin-3-yl)(4-(5-methylbenzo[d]oxazol-2-yl)-6,7-dihydro-1H-imidazo[4,5-c]pyridin-5(4H)-yl)methanone] the figure was ≥ 5000 nM; with `O=C(c1nnc(-c2cnn(C(F)F)c2)o1)N1CCc2[nH]cnc2[C@@H]1c1nc2c(F)ccc(F)c2o1` [Example 802, (R)-(4-(4,7-difluorobenzo[d]oxazol-2-yl)-6,7-dihydro-1H-imidazo[4,5-c]pyridin-5(4H)-yl)(5-(1-(difluoromethyl)-1H-pyrazol-4-yl)-1,3,4-oxadiazol-2-yl)methanone], 500 to 1000 nM; with `COc1ccc2oc([C@@H]3c4nc[nH]c4CCN3C(=O)c3nc(C(F)F)nn3C)nc2c1` [Example 549, (S)-(3-(difluoromethyl)-1-methyl-1H-1,2,4-triazol-5-yl)(4-(5-methoxybenzo[d]oxazol-2-yl)-6,7-dihydro-1H-imidazo[4,5-c]pyridin-5(4H)-yl)methanone], 500 to 1000 nM.
In the case of `CC(C)(O)c1cc(C(=O)N2CCc3[nH]cnc3C2c2nc3c(F)cccc3o2)no1` (stereo not drawn), under setting [1], the half-maximal activity concentration (AC50) was ≥ 5000 nM.
Consider `O=C(Cc1cnn2ccccc12)N1CCc2[nH]cnc2C1c1nc2cc(F)ccc2o1` (stereo not drawn), for which the AC50 under setting [1] lay in the range of 1000 to 5000 nM.
For the compound `Cn1nc(C(F)(F)F)nc1C(=O)N1CCc2[nH]cnc2C1c1nc2cc(F)ccc2o1` (stereo not drawn), the AC50 under setting [1] fell in the range of 1000 to 5000 nM.
In the case of `CC(C)(O)C1CCN(c2ccc3c(C(=O)N4CCc5[nH]cnc5[C@H]4c4nc5c(F)cccc5o4)cnn3c2)CC1` [Example 507, (S)-(4-(4-fluorobenzo[d]oxazol-2-yl)-6,7-dihydro-1H-imidazo[4,5-c]pyridin-5(4H)-yl)(6-(4-(2-hydroxypropan-2-yl)piperidin-1-yl)pyrazolo[1,5-a]pyridin-3-yl)methanone], the concentration at half-maximal activity (AC50) (A375 R408W cells) lay in the range of 500 to 1000 nM.
On to `O=C(c1cnn2cc(N3CCOCC3)ccc12)N1CCc2[nH]cnc2[C@@H]1c1nc2c(F)cccc2o1` [Example 503, (R)-(4-(4-fluorobenzo[d]oxazol-2-yl)-6,7-dihydro-1H-imidazo[4,5-c]pyridin-5(4H)-yl)(6-morpholinopyrazolo[1,5-a]pyridin-3-yl)methanone], for which the AC50 (A375 R408W cells) is ≥ 5000 nM.
Still for that read-out and setting: the result for `Cc1cccc2oc([C@@H]3c4nc[nH]c4CCN3C(=O)c3nnc(-c4cnn(C)c4)o3)nc12` [Example 480, (S)-(5-(1-methyl-1H-pyrazol-4-yl)-1,3,4-oxadiazol-2-yl)(4-(4-methylbenzo[d]oxazol-2-yl)-6,7-dihydro-1H-imidazo[4,5-c]pyridin-5(4H)-yl)methanone] reads ≤ 500 nM.
On to `Cn1cc(-c2nnc(C(=O)N3CCc4[nH]cnc4C3c3nc4cc(C(F)(F)F)ccc4o3)o2)cn1` (stereo not drawn), for which, under setting [1], the AC50 lay in the range of 1000 to 5000 nM.
For the compound `FC(F)(F)c1nnc(N2Cc3[nH]cnc3[C@@H]2c2nc3ccccc3o2)o1` [Example 945, (R)-2-(5-(5-(trifluoromethyl)-1,3,4-oxadiazol-2-yl)-1,4,5,6-tetrahydropyrrolo[3,4-d]imidazol-4-yl)benzo[d]oxazole], the AC50 (A375 R408W cells) was ≥ 5000 nM.
Still for that read-out and setting: the result for `O=C(c1nnc(-c2ncccc2F)o1)N1CCc2[nH]cnc2[C@@H]1c1nc2c(F)ccc(F)c2o1` [Example 799, (R)-(4-(4,7-difluorobenzo[d]oxazol-2-yl)-6,7-dihydro-1H-imidazo[4,5-c]pyridin-5(4H)-yl)(5-(3-fluoropyridin-2-yl)-1,3,4-oxadiazol-2-yl)methanone] reads 500 to 1000 nM; that for `Cn1nccc1C(=O)N1CCc2[nH]cnc2[C@H]1c1nc2ccccc2o1` [Example 711, (S)-(4-(benzo[d]oxazol-2-yl)-6,7-dihydro-1H-imidazo[4,5-c]pyridin-5(4H)-yl)(1-methyl-1H-pyrazol-5-yl)methanone], 1000 to 5000 nM.
On the same count and under the same terms, the result for `O=C(CC1CC(F)C1)N1CCc2[nH]cnc2[C@@H]1c1nc2cc(F)ccc2o1` (stereo partly drawn) [Example 60, (R)-1-(4-(5-fluorobenzo[d]oxazol-2-yl)-6,7-dihydro-1H-imidazo[4,5-c]pyridin-5(4H)-yl)-2-(3-fluorocyclobutyl)ethanone] reads 1000 to 5000 nM; that for `CN(C)CCc1cn2ncc(C(=O)N3CCc4[nH]cnc4[C@H]3c3nc4cc(F)ccc4o3)c2cc1Cl` [Example 79, (S)-(5-chloro-6-(2-(dimethylamino)ethyl)pyrazolo[1,5-a]pyridin-3-yl)(4-(5-fluorobenzo[d]oxazol-2-yl)-6,7-dihydro-1H-imidazo[4,5-c]pyridin-5(4H)-yl)methanone], 500 to 1000 nM; that for `O=C(c1oc(-c2cccnc2)nc1C(F)F)N1CCc2[nH]cnc2[C@@H]1c1nc2cc(F)ccc2o1` [Example 419, (R)-(4-(difluoromethyl)-2-(pyridin-3-yl)oxazol-5-yl)(4-(5-fluorobenzo[d]oxazol-2-yl)-6,7-dihydro-1H-imidazo[4,5-c]pyridin-5(4H)-yl)methanone], 500 to 1000 nM.
Take `COc1cccc2nc([C@H]3c4nc[nH]c4CCN3C(=O)c3oc(C(C)(C)O)nc3C(F)F)oc12` [Example 456, (R)-(4-(difluoromethyl)-2-(2-hydroxypropan-2-yl)oxazol-5-yl)(4-(7-methoxybenzo[d]oxazol-2-yl)-6,7-dihydro-1H-imidazo[4,5-c]pyridin-5(4H)-yl)methanone]: the AC50 (A375 R408W cells) lay in the range of 1000 to 5000 nM.
Same read-out and setting: the result for `CC(C)(O)c1nc(Br)c(C(=O)N2CCc3[nH]cnc3[C@H]2c2nc3ccc(F)cc3o2)o1` [Example 249, (S)-(4-bromo-2-(2-hydroxypropan-2-yl)oxazol-5-yl)(4-(6-fluorobenzo[d]oxazol-2-yl)-6,7-dihydro-1H-imidazo[4,5-c]pyridin-5(4H)-yl)methanone] reads 500 to 1000 nM.
Regarding `COc1cccc2oc(C3c4nc[nH]c4CCN3C(=O)c3cnc(C(C)(C)O)o3)nc12` (stereo not drawn), the AC50 under setting [1] fell in the range of 1000 to 5000 nM.

(Values after patent publication US20250171437A1 (Agios Pharmaceuticals,Inc., priority 2022, published 2025).)
